According to patent US7919577B2, “Adrenocorticotropic hormone analogs and related methods” (Colorado Seminary, priority 2004, dated 2011):
No end group written: not given here.

Tested on: dexamethasone-suppressed male FVB/N mice
Test: in vivo Serum Corticosteroid Induction Assay (Example 1)
Set-up: species or system mouse
Conditions: relative to unmodified mACTH(1-24); 1 μg subcutaneously to dexamethasone-suppressed mice; blood one hour later
Method: An in vivo Serum Corticosteroid Induction Assay measures the level of corticosteroid or corticosterone in the blood stream of a subject. More specifically, the in vivo Serum Corticosteroid Induction Assay can include the following steps: first, an agent to suppress endogenous ACTH production was administered to a mouse subject, such as an intraperitoneal injection of dexamethasone; second, after waiting a suitable period of time for suppression of endogenous ACTH production (e.g., 1.5-2.0 hours), a test compound can be administered to the mouse by a suitable method, such as intraperitoneal or subcutaneous injection; and third, after waiting a suitable period of time (e.g., 1 hour) for action of the injected test compound, a blood sample can be taken from the subject and the level of serum corticosterone can be determined by a suitable method, such as a competitive radioimmunoassay using ^125I RIA kit (ICN, Costa Mesa, Calif.). Example 1 describes a murine in vivo Serum Corticosteroid Induction Assay in detail.
The corticosteroid or corticosterone secretion induced in vivo by an ACTH analog compound was compared to the level of corticosteroid secretion produced by an unmodified ACTH compound by measuring blood serum corticosteroid after administering either the ACTH or ACTH analog as test compounds. […] ACTH analog compositions with decreased function were identified by measuring corticosterone levels using standard radioimmunoassay (RIA) analysis on blood samples collected one hour after administering the mACTH(1-24) or ACTH analog compound to dexamethasone-suppressed mice. In FIG. 1, the potency of various ACTH analog peptides is expressed as percent induction of corticosterone, with mouse ACTH being 100%. […] The percent of corticosterone induction 12 of ACTH analog Compounds in Samples 2-10 are shown as a percentage of the concentration of serum corticosterone 20 measured for unmodified mACTH(1-24) in the in vivo Serum Corticosteroid Adrenal Induction Assay. The structural modifications and measured percentage reduction in serum measured for Samples 2-10 in FIG. 1 are shown in Table 3 below.
The in vivo Serum Corticosteroid Induction Assay was performed according the following method. First, two to three month-old male FVB/N mice from our colony, five per group, were injected intraperitoneally with dexamethasone (0.4 mg/0.1 ml PBS per mouse; Sigma, St. Louis, Mo.) to suppress their endogenous ACTH production. See Hajos, G T et al., “Studies of the potency of polypeptides with ACTH action by a new method based on continuous measurement of plasma corticosterone,” Steroids Lipids Res 3:225-228 (1972), Costa, J L, et al., “Mutational analysis of evolutionarily conserved ACTH residues,” Gen Comp Endocrinol, 136:12-16 (2004), and Karpac, J, et al., “Development, Maintenance, and Function of the Adrenal Gland in Early Postnatal Pro-opiomelanocortin Null Mutant Mice,” Endocrinology (2005), published online ahead of print Feb. 24, 2005, all of which are incorporated herein by reference.
Second, ninety to one hundred twenty minutes later, the dexamethasone-suppressed mice were injected subcutaneously between the shoulder blades with either unmodified mACTH(1-24) or one of several ACTH analog peptide compounds (1 μg/0.1 mL PBS/0.5% BSA), or with vehicle alone (control) (0.1 mL PBS/0.5% BSA). The following ACTH analog peptide compounds were administered to separate mice: 1: murine ACTH1-24; 2: V26F,E30K; 3: P19W,K21E,Y23R; 4: E30K,P36R; 5: ALA19-24; 6: V26F,P36R; 7: P19W, K21E; 8: P19W,K21A,delY23; 9: P19W,K21A; 10: KRRP16-19RAAW (AT814) (SEQ ID NO:20).
Third, one hour later, blood was collected within less than 1 minute from a small incision in the tail, and serum was flash-frozen and stored at −80° C. until assayed. Serum corticosterone was determined by competitive radioimmunoassay (^125I RIA kit; ICN, Costa Mesa, Calif.) according to the manufacturer's recommendations. One microliter of serum was used per assay sample. […]

N-Ser^1-Tyr-Ser-Met-Glu^5-His-Phe-Arg-Trp-Gly^10-Lys-Pro-Val-Gly-Lys^15-Arg-Ala-Ala-Trp-Val^20-Lys-Val-Tyr-Pro-Ac (SYSMEHFRWGKPVGKRAAWVKVYP; not fully specified; printed as N-Ser1-Tyr-Ser-Met-Glu5-His-Phe-Arg-Trp-Gly10-Lys-Pro-Val-Gly-Lys15-Arg-Ala-Ala-Trp-Val20-Lys-Val-Tyr-Pro-Ac) [AT814]
Percent reduction in serum corticosteroid: 100%
